Measurements: patent US11446226B2, “Composition for preventing or improving intrinsic aging comprising paeoniflorin or albiflorin” (Amorepacific Corporation, priority 2017, dated 2022)

Tests used:
MMP-1 [1] = experiment: MMP-1 inhibition effect in fibroblasts, stimulation source UV (UVB; MMP-1 ELISA normalized to CCK8 cell viability); format: cell-based; settings: 48 hours
Procedure: Fibroblasts acquired from ATCC were transferred to a medium containing 10% (v/v) FBS and were cultured at 37° C. for 24 hours under the condition of 5% CO2. After replacing the medium with a serum-free medium, the cells were cultured for at least 6 hours. Then, after treating with 30 mJ/cm^2 UVB, as an extrinsic stimulating factor causing extrinsic aging, and then with 0.1 ppm or 1 ppm paeoniflorin (Sigma-Aldrich), the cells were cultured for 48 hours. 48 hours later, the culture was separated partly and MMP-1 ELISA was conducted according to a method commonly employed in the art. A negative control group was not treated with paeoniflorin, and a positive control group was treated with 2 μM ATRA (all-trans retinoic acid) instead of the paeoniflorin.
Subsequently, the remaining culture was separated partly and cell viability was measured by CCK8 (cell count kit 8) assay according to a method commonly employed in the art. The result was normalized to the result of the MMP-1 ELISA.
Meanwhile, the MMP-1 inhibition effect by albiflorin was investigated in the same manner as the MMP-1 inhibition effect by paeoniflorin, except that the cells were treated with 0.1 ppm or 1 ppm albiflorin (Wako Chemical) instead of the 0.1 ppm or 1 ppm paeoniflorin.

MMP-1 [2] = experiment: MMP-1 inhibition effect in fibroblasts, stimulation source TNF-α (MMP-1 ELISA normalized to CCK8 cell viability); format: cell-based; settings: TNF-α 10 ng/mL; for MMP-1 level with respect to the negative control group treated with TNF-α as 100: 0.1 or 1 ppm; for Normalized MMP-1 level relative to TNF-α control (100%): 48 hours
Procedure: Fibroblasts acquired from ATCC were transferred to a medium containing 10% (v/v) FBS and were cultured at 37° C. for 24 hours under the condition of 5% CO2. After replacing the medium with a serum-free medium, the cells were cultured for at least 6 hours. Then, after treating with 10 ng/mL TNF-α, as an intrinsic inflammatory factor causing intrinsic aging, and then with 0.1 ppm or 1 ppm paeoniflorin (Sigma-Aldrich), the cells were cultured for 48 hours. 48 hours later, the culture was separated partly and MMP-1 ELISA was conducted according to a method commonly employed in the art. A negative control group was not treated with paeoniflorin, and a positive control group was treated with 2 μM ATRA (all-trans retinoic acid) instead of the paeoniflorin. Subsequently, the remaining culture was separated partly and cell viability was measured by CCK8 (cell count kit 8) assay according to a method commonly employed in the art. The result was normalized to the result of the MMP-1 ELISA. Meanwhile, the MMP-1 inhibition effect by albiflorin was investigated in the same manner as the MMP-1 inhibition effect by paeoniflorin, except that the cells were treated with 0.1 ppm or 1 ppm albiflorin (Wako Chemical) instead of the 0.1 ppm or 1 ppm paeoniflorin. The MMP-1 inhibition effect by a combination of paeoniflorin and albiflorin was investigated in the same manner as the MMP-1 inhibition effect by paeoniflorin, except that the cells were treated with a 10:1 mixture of paeoniflorin and albiflorin (P+A) at 0.1+0.01 ppm or 1+0.1 ppm instead of the 0.1 ppm or 1 ppm paeoniflorin.

[3] = UVB 30 mJ/cm^2, 0.1 ppm, with respect to negative control
[4] = UVB 30 mJ/cm^2, 1 ppm, with respect to negative control
[5] = 0.1 ppm, with respect to negative control
[6] = 1 ppm, with respect to negative control

Compound | Normalized MMP-1 Inhibition (%) (MMP-1 [1]; [3]) | Normalized MMP-1 Inhibition (%) (MMP-1 [1]; [4]) | MMP-1 level with respect to the negative control group treated with TNF-α as 100 (MMP-1 [2]) | Normalized MMP-1 level relative to TNF-α control (100%) (MMP-1 [2]; [5]) [%] | Normalized MMP-1 level relative to TNF-α control (100%) (MMP-1 [2]; [6]) [%] | Normalized MMP-1 Inhibition (%) (MMP-1 [1]; UVB 30 mJ/cm^2, positive control 2 μM ATRA) | Normalized MMP-1 level relative to TNF-α control (100%) (MMP-1 [2]; positive control 2 μM ATRA) [%]
C[C@]12C[C@@H](O)[C@@H]3C[C@@]1(O[C@@H]1O[C@H](CO)[C@@H](O)[C@H](O)[C@H]1O)[C@]3(COC(=O)c1ccccc1)C(=O)O2 [Albiflorin, albiflorin] | −5.29 | −10.96 | about 60% | 63.25 | 59.44 |  | 
C[C@@]12C[C@@]3(O)O[C@@H](O1)[C@]1(COC(=O)c4ccccc4)[C@H]3C[C@@]12O[C@@H]1O[C@H](CO)[C@@H](O)[C@H](O)[C@H]1O [Paeoniflorin, paeoniflorin] | −3.27 | −22.03 | about 60% | 69.34 | 66.49 |  | 
CC1=C(/C=C/C(C)=C/C=C/C(C)=C/C(=O)O)C(C)(C)CCC1 [Positive control, all-trans retinoic acid, reference compound] |  |  |  |  |  | 25.72 | 48.75
